{"source": "patent US20090069565A1", "about": "“NEW INDOLE DERIVATIVES AS FACTOR XA INHIBITORS” (priority 2001, published 2009)"}
{"target": "human factor Xa (Homo sapiens, UniProt P00742)", "sequence (P00742 235-488 limits assumed)": "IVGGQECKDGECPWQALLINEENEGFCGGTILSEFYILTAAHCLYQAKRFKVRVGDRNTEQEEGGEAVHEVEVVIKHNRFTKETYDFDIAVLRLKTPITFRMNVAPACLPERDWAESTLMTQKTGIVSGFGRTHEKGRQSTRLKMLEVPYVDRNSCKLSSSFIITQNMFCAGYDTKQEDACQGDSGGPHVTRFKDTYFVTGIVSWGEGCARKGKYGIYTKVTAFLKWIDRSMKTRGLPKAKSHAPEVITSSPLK", "sequence (P00742 41-179 partner limits assumed)": "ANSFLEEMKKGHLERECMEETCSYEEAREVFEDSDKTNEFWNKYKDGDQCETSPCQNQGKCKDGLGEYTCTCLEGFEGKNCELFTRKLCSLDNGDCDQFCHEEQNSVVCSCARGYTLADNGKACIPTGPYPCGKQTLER", "assay": "Factor Xa assay (chromogenic, substrate S-2765);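 note: purified enzyme preincubated with inhibitor for 10 min before substrate addition, final reaction volume 100 µl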", "assay_type": "biochemical", "conditions": "not given", "units": {"Ki": "µM"}}
{"smiles": "CC(C)N1CCC(NC(=O)c2cc3cccc(Cl)c3n2Cc2cc(-c3ccc(Cl)s3)on2)CC1", "note": "[Example 20]", "Ki": 0.007}
{"target": "human factor Xa (Homo sapiens, UniProt P00742)", "assay": "Factor Xa assay (chromogenic, substrate S-2765);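 note: purified enzyme preincubated with inhibitor for 10 min before substrate addition, final reaction volume 100 µl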", "assay_type": "biochemical", "conditions": "inhibition constant for factor Xa; purified enzyme 0.5 nM, substrate S-2765 140 μM, 25° C., pH 7.8; Ki=IC50/{1+(substrate concentration/Km)}; read-out: Ki(FXa)", "units": {"Ki": "µM"}}
{"smiles": "CC(C)N1CCC(NC(=O)c2cc3cc(S(C)(=O)=O)ccc3n2Cc2cc(-c3ccc(Cl)s3)on2)CC1", "note": "[Example 2]", "Ki": 0.02}
{"smiles": "CC(C)N1CCC(NC(=O)c2cc3cc([N+](=O)[O-])ccc3n2Cc2cc(-c3ccc(Cl)s3)on2)CC1", "note": "[Example 3]", "Ki": 0.001}
{"smiles": "CC(C)N1CCC(NC(=O)c2cc3cc(OCc4ccccc4)ccc3n2Cc2cc(-c3ccc(Cl)s3)on2)CC1", "note": "[Example 4]", "Ki": 0.834}
{"smiles": "CC(C)N1CCC(NC(=O)c2cc3cc(Cl)ccc3n2Cc2cc(-c3ccc(Cl)s3)on2)CC1", "note": "[Example 5]", "Ki": 0.005}
{"smiles": "Cc1ccc2c(c1)cc(C(=O)NC1CCN(C(C)C)CC1)n2Cc1cc(-c2ccc(Cl)s2)on1", "note": "[Example 8]", "Ki": 0.009}
{"smiles": "CC(C)N1CCC(NC(=O)c2cc3cccc([N+](=O)[O-])c3n2Cc2cc(-c3ccc(Cl)s3)on2)CC1", "note": "[Example 11]", "Ki": 0.0001}
{"smiles": "CC(C)N1CCC(NC(=O)c2c(-c3ccccc3)c3ccccc3n2Cc2cc(-c3ccc(Cl)s3)on2)CC1", "note": "[Example 16]", "Ki": 0.055}
{"smiles": "CC(C)N1CCC(NC(=O)c2cc3ccc(Cl)cc3n2Cc2cc(-c3ccc(Cl)s3)on2)CC1", "note": "[Example 21]", "Ki": 0.007}
{"smiles": "CC(C)N1CCC(NC(=O)c2cc3cc(F)ccc3n2Cc2cc(-c3ccc(Cl)s3)on2)CC1", "note": "[Example 23]", "Ki": 0.003}
{"smiles": "O=C(NC1CCN(c2ccncc2)CC1)c1cc2ccccc2n1Cc1cc(-c2ccc(Cl)s2)on1", "note": "[Example 28, 1-[5-(5-Chloro-thiophen-2-yl)-isoxazol-3-ylmethyl]-1H-indole-2-carboxylic acid (3,4,5,6-tetrahydro-2H-[1,4′]bipyridinyl-4-yl)-amide]", "Ki": 0.014}
{"smiles": "O=C(c1cc2ccccc2n1Cc1cc(-c2ccc(Cl)s2)on1)N1CCC(Nc2ccncc2)CC1", "note": "[Example 31, {1-[5-(5-Chloro-thiophen-2-yl)-isoxazol-3-ylmethyl]-1H-indol-2-yl}-[4-(pyridin-4-ylamino)-piperidin-1-yl]-methanone]", "Ki": 0.018}
{"smiles": "CCN1CCC(NC(=O)c2cc3ccccc3n2Cc2cc(-c3ccc(Cl)s3)on2)CC1", "note": "[Example 36, 1-[5-(5-Chloro-thiophen-2-yl)-isoxazol-3-ylmethyl]-1H-indole-2-carboxylic acid (1-ethyl-piperidin-4-yl)-amide]", "Ki": 0.018}
{"smiles": "O=C(NCC1CCN(c2ccncc2)CC1)c1cc2ccccc2n1Cc1cc(-c2ccc(Cl)s2)on1", "note": "[Example 47, 1-[5-(5-Chloro-thiophen-2-yl)-isoxazol-3-ylmethyl]-1H-indole-2-carboxylic acid (3,4,5,6-tetrahydro-2H-[1,4′]bipyridinyl-4-ylmethyl)-amide]", "Ki": 0.064}
{"smiles": "O=C(NC1CCN(C2CC2)CC1)c1cc2ccccc2n1Cc1cc(-c2ccc(Cl)s2)on1", "note": "[Example 48, 1-[5-(5-Chloro-thiophen-2-yl)-isoxazol-3-ylmethyl]-1H-indole-2-carboxylic acid (1-cyclopropyl-piperidin-4-yl)-amide]", "Ki": 0.027}
{"target": "human factor Xa (Homo sapiens, UniProt P00742)", "assay": "Factor Xa assay (chromogenic, substrate S-2765);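 note: purified enzyme preincubated with inhibitor for 10 min before substrate addition, final reaction volume 100 µl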", "assay_type": "biochemical", "conditions": "read-out: Ki(FXa)", "units": {"Ki": "µM"}}
{"smiles": "COc1ccc2c(c1)cc(C(=O)NC1CCN(C(C)C)CC1)n2Cc1cc(-c2ccc(Cl)s2)on1", "note": "[Example 6]", "Ki": 0.013}
{"smiles": "COc1ccc2cc(C(=O)NC3CCN(C(C)C)CC3)n(Cc3cc(-c4ccc(Cl)s4)on3)c2c1", "note": "[Example 7]", "Ki": 0.004}
{"smiles": "COc1cc(OC)c2cc(C(=O)NC3CCN(C(C)C)CC3)n(Cc3cc(-c4ccc(Cl)s4)on3)c2c1", "note": "[Example 9]", "Ki": 0.003}
{"smiles": "COc1cc2cc(C(=O)NC3CCN(C(C)C)CC3)n(Cc3cc(-c4ccc(Cl)s4)on3)c2cc1OC", "note": "[Example 10]", "Ki": 0.182}
{"smiles": "CC(C)N1CCC(NC(=O)c2cc3cc(OC(F)(F)F)ccc3n2Cc2cc(-c3ccc(Cl)s3)on2)CC1", "note": "[Example 12]", "Ki": 0.114}
{"smiles": "CC(C)N1CCC(NC(=O)c2cc3cccc(NC(=O)C(C)(C)C)c3n2Cc2cc(-c3ccc(Cl)s3)on2)CC1", "note": "[Example 14]", "Ki": 1.72}
{"smiles": "COc1cccc2c1cc(C(=O)NC1CCN(C(C)C)CC1)n2Cc1cc(-c2ccc(Cl)s2)on1", "note": "[Example 15]", "Ki": 0.0035}
{"smiles": "COc1cc2cc(C(=O)NC3CCN(C(C)C)CC3)n(Cc3cc(-c4ccc(Cl)s4)on3)c2cc1O", "note": "[Example 17]", "Ki": 1.97}
{"smiles": "CC(C)N1CCC(NC(=O)c2cc3c(F)cc(F)cc3n2Cc2cc(-c3ccc(Cl)s3)on2)CC1", "note": "[Example 18]", "Ki": 0.016}
{"smiles": "CC(C)N1CCC(NC(=O)c2cc3c(OCc4ccccc4)cccc3n2Cc2cc(-c3ccc(Cl)s3)on2)CC1", "note": "[Example 19]", "Ki": 0.05}
{"smiles": "CCc1ccc2c(c1)cc(C(=O)NC1CCN(C(C)C)CC1)n2Cc1cc(-c2ccc(Cl)s2)on1", "note": "[Example 22]", "Ki": 0.217}
{"smiles": "CC(C)N1CCC(NC(=O)c2c(-c3ccccc3)c3cc([N+](=O)[O-])ccc3n2Cc2cc(-c3ccc(Cl)s3)on2)CC1", "note": "[Example 24]", "Ki": 0.132}
{"smiles": "CC(C)N1CCC(NC(=O)c2c(-c3ccccc3)c3cc(Cl)ccc3n2Cc2cc(-c3ccc(Cl)s3)on2)CC1", "note": "[Example 25]", "Ki": 0.336}
{"smiles": "CC(C)N1CCC(NC(=O)c2cc3cc(F)cc(F)c3n2Cc2cc(-c3ccc(Cl)s3)on2)CC1", "note": "[Example 26]", "Ki": 0.0001}
{"smiles": "CC(C)N1CCC(NC(=O)c2cc3cc([N+](=O)[O-])cc([N+](=O)[O-])c3n2Cc2cc(-c3ccc(Cl)s3)on2)CC1", "note": "[Example 27]", "Ki": 0.0002}
{"smiles": "Cc1cccc2cc(C(=O)NC3CCN(c4ccncc4)CC3)n(Cc3cc(-c4ccc(Cl)s4)on3)c12", "note": "[Example 29, 1-[5-(5-Chloro-thiophen-2-yl)-isoxazol-3-ylmethyl]-7-methyl-1H-indole-2-carboxylic acid (3,4,5,6-tetrahydro-2H-[1,4′]bipyridinyl-4-yl)-amide]", "Ki": 0.019}
{"smiles": "O=C(NC1CCN(c2ccncc2)CC1)c1cc2cc([N+](=O)[O-])ccc2n1Cc1cc(-c2ccc(Cl)s2)on1", "note": "[Example 30, 1-[5-(5-Chloro-thiophen-2-yl)-isoxazol-3-ylmethyl]-5-nitro-1H-indole-2-carboxylic acid (3,4,5,6-tetrahydro-2H-[1,4′]bipyridinyl-4-yl)-amide]", "Ki": 0.025}
{"smiles": "O=C(c1cc2cc([N+](=O)[O-])ccc2n1Cc1cc(-c2ccc(Cl)s2)on1)N1CCC(Nc2ccncc2)CC1", "note": "[Example 32, {1-[5-(5-Chloro-thiophen-2-yl)-isoxazol-3-ylmethyl]-5-nitro-1H-indol-2-yl}-[4-(pyridin-4-ylamino)-piperidin-1-yl]-methanone]", "Ki": 0.037}
{"smiles": "Cc1cccc2cc(C(=O)N3CCC(Nc4ccncc4)CC3)n(Cc3cc(-c4ccc(Cl)s4)on3)c12", "note": "[Example 33, {1-[5-(5-Chloro-thiophen-2-yl)-isoxazol-3-ylmethyl]-7-methyl-1H-indol-2-yl}-[4-(pyridin-4-ylamino)-piperidin-1-yl]-methanone]", "Ki": 0.011}
{"smiles": "Cc1cccc2cc(C(=O)N3CCC(NC(C)C)CC3)n(Cc3cc(-c4ccc(Cl)s4)on3)c12", "note": "[Example 35, {1-[5-(5-Chloro-thiophen-2-yl)-isoxazol-3-ylmethyl]-7-methyl-1H-indol-2-yl}-(4-isopropylamino-piperidin-1-yl)-methanone]", "Ki": 0.502}
{"smiles": "CCN1CCC(NC(=O)c2cc3cccc(C)c3n2Cc2cc(-c3ccc(Cl)s3)on2)CC1", "note": "[Example 37, 1-[5-(5-Chloro-thiophen-2-yl)-isoxazol-3-ylmethyl]-7-methyl-1H-indole-2-carboxylic acid (1-ethyl-piperidin-4-yl)-amide]", "Ki": 0.003}
{"smiles": "O=C(c1cc2ccccc2n1Cc1cc(-c2ccc(Cl)s2)on1)N1CCC(N2CCCC2)CC1", "note": "[Example 38, {1-[5-(5-Chloro-thiophen-2-yl)-isoxazol-3-ylmethyl]-1H-indol-2-yl}-(4-pyrrolidin-1-yl-piperidin-1-yl)-methanone]", "Ki": 0.701}
{"smiles": "CN1CCC(N2CCN(C(=O)c3cc4ccccc4n3Cc3cc(-c4ccc(Cl)s4)on3)CC2)CC1", "note": "[Example 39, {1-[5-(5-Chloro-thiophen-2-yl)-isoxazol-3-ylmethyl]-1H-indol-2-yl}-[4-(1-methyl-piperidin-4-yl)-piperazin-1-yl]-methanone]", "Ki": 2}
{"smiles": "O=C(NCC1CC(c2ccncc2)=NO1)c1cc2ccccc2n1Cc1cc(-c2ccc(Cl)s2)on1", "note": "(centres unmarked) [Example 41, 1-[5-(5-Chloro-thiophen-2-yl)-isoxazol-3-ylmethyl]-1H-indole-2-carboxylic acid (3-pyridin-4-yl-4,5-dihydro-isoxazol-5-ylmethyl)-amide]", "Ki": 1.03}
{"smiles": "O=C(c1cc2ccccc2n1Cc1cc(-c2ccc(Cl)s2)on1)N1CCN(Cc2ccncc2)CC1", "note": "[Example 43, {1-[5-(5-Chloro-thiophen-2-yl)-isoxazol-3-ylmethyl]-1H-indol-2-yl}-(4-pyridin-4-ylmethyl-piperazin-1-yl)-methanone]", "Ki": 0.504}
{"smiles": "COc1cccc(Cn2c(C(=O)NCC3CCN(c4ccncc4)CC3)cc3ccccc32)c1", "note": "[Example 55]", "Ki": 1.7}
{"smiles": "COc1cccc(Cn2c(C(=O)NC3CCN(C(C)C)CC3)cc3c(OC)cccc32)c1", "note": "[Example 66, 4-Methoxy-1-(3-methoxy-benzyl)-1H-indole-2-carboxylic acid (1-isopropyl-piperidin-4-yl)-amide]", "Ki": 0.043}
{"smiles": "COc1cccc(Cn2c(C(=O)NC3CCN(C(C)C)CC3)cc3cc(Cl)ccc32)c1", "note": "[Example 67, 5-Chloro-1-(3-methoxy-benzyl)-1H-indole-2-carboxylic acid (1-isopropyl-piperidin-4-yl)-amide]", "Ki": 0.187}
{"smiles": "COc1cccc(Cn2c(C(=O)NC3CCN(C(C)C)CC3)cc3cc(C)ccc32)c1", "note": "[Example 69, 1-(3-Methoxy-benzyl)-5-methyl-1H-indole-2-carboxylic acid (1-isopropyl-piperidin-4-yl)-amide]", "Ki": 0.159}
{"smiles": "COc1cccc(Cn2c(C(=O)NC3CCN(C(C)C)CC3)cc3cc(OCc4ccccc4)ccc32)c1", "note": "[Example 70]", "Ki": 0.114}
{"smiles": "COc1cccc(Cn2c(C(=O)NC3CCN(C(C)C)CC3)cc3cc([N+](=O)[O-])ccc32)c1", "note": "[Example 71, 1-(3-Methoxy-benzyl)-5-nitro-1H-indole-2-carboxylic acid (1-isopropyl-piperidin-4-yl)-amide]", "Ki": 0.277}
{"smiles": "COc1cccc(Cn2c(C(=O)NC3CCN(C(C)C)CC3)cc3cc(OC)ccc32)c1", "note": "[Example 72, 5-Methoxy-1-(3-methoxy-benzyl)-1H-indole-2-carboxylic acid (1-isopropyl-piperidin-4-yl)-amide]", "Ki": 0.167}
